Measured values published in the NIST ThermoML archive (doi:10.1021/je500381c).
Numbers after ± are expanded uncertainties.

Assay: refractive index (Na D-line) (dimensionless); xn = mol fraction of the nth substance listed
Conditions: 100 kPa, Liquid, Standard Abbe refractometry

CC12CC3CC(C)(C1)CC(C)(C3)C2 [1,3,5-trimethyladamantane] + OCC1CCCCC1
refractive index (293.15 K, x2 = 0): 1.4736 ± 0.001 | refractive index (293.15 K, x2 = 0.1): 1.4727 ± 0.001 | refractive index (293.15 K, x2 = 0.2001): 1.4718 ± 0.001 | refractive index (293.15 K, x2 = 0.2997): 1.4711 ± 0.001 | refractive index (293.15 K, x2 = 0.4): 1.4703 ± 0.001 | refractive index (293.15 K, x2 = 0.4994): 1.4694 ± 0.001 | refractive index (293.15 K, x2 = 0.5991): 1.4684 ± 0.001 | refractive index (293.15 K, x2 = 0.7): 1.4673 ± 0.001 | refractive index (293.15 K, x2 = 0.801): 1.4661 ± 0.001 | refractive index (293.15 K, x2 = 0.8927): 1.465 ± 0.001 | refractive index (298.15 K, x2 = 0): 1.4715 ± 0.001 | refractive index (298.15 K, x2 = 0.1): 1.4708 ± 0.001 | refractive index (298.15 K, x2 = 0.2001): 1.47 ± 0.001 | refractive index (298.15 K, x2 = 0.2997): 1.4691 ± 0.001 | refractive index (298.15 K, x2 = 0.4): 1.4681 ± 0.001 | refractive index (298.15 K, x2 = 0.4994): 1.4672 ± 0.001 | refractive index (298.15 K, x2 = 0.5991): 1.4663 ± 0.001 | refractive index (298.15 K, x2 = 0.7): 1.4655 ± 0.001 | refractive index (298.15 K, x2 = 0.801): 1.4641 ± 0.001 | refractive index (298.15 K, x2 = 0.8927): 1.4631 ± 0.001 | refractive index (303.15 K, x2 = 0): 1.4695 ± 0.001 | refractive index (303.15 K, x2 = 0.1): 1.4686 ± 0.001 | refractive index (303.15 K, x2 = 0.2001): 1.4676 ± 0.001 | refractive index (303.15 K, x2 = 0.2997): 1.4669 ± 0.001 | refractive index (303.15 K, x2 = 0.4): 1.4659 ± 0.001 | refractive index (303.15 K, x2 = 0.4994): 1.465 ± 0.001 | refractive index (303.15 K, x2 = 0.5991): 1.4643 ± 0.001 | refractive index (303.15 K, x2 = 0.7): 1.4632 ± 0.001 | refractive index (303.15 K, x2 = 0.801): 1.4621 ± 0.001 | refractive index (303.15 K, x2 = 0.8927): 1.4609 ± 0.001 | refractive index (313.15 K, x2 = 0): 1.4649 ± 0.001 | refractive index (313.15 K, x2 = 0.1): 1.4641 ± 0.001 | refractive index (313.15 K, x2 = 0.2001): 1.4633 ± 0.001 | refractive index (313.15 K, x2 = 0.2997): 1.4625 ± 0.001 | refractive index (313.15 K, x2 = 0.4): 1.4618 ± 0.001 | refractive index (313.15 K, x2 = 0.4994): 1.4608 ± 0.001 | refractive index (313.15 K, x2 = 0.5991): 1.46 ± 0.001 | refractive index (313.15 K, x2 = 0.7): 1.459 ± 0.001 | refractive index (313.15 K, x2 = 0.801): 1.458 ± 0.001 | refractive index (313.15 K, x2 = 0.8927): 1.4568 ± 0.001 | refractive index (323.15 K, x2 = 0): 1.4612 ± 0.001 | refractive index (323.15 K, x2 = 0.1): 1.46 ± 0.001 | refractive index (323.15 K, x2 = 0.2001): 1.4589 ± 0.001 | refractive index (323.15 K, x2 = 0.2997): 1.4582 ± 0.001 | refractive index (323.15 K, x2 = 0.4): 1.4573 ± 0.001 | refractive index (323.15 K, x2 = 0.4994): 1.4565 ± 0.001 | refractive index (323.15 K, x2 = 0.5991): 1.4556 ± 0.001 | refractive index (323.15 K, x2 = 0.7): 1.4549 ± 0.001 | refractive index (323.15 K, x2 = 0.801): 1.4539 ± 0.001 | refractive index (323.15 K, x2 = 0.8927): 1.4528 ± 0.001 | refractive index (333.15 K, x2 = 0): 1.4568 ± 0.001 | refractive index (333.15 K, x2 = 0.1): 1.4552 ± 0.001 | refractive index (333.15 K, x2 = 0.2001): 1.4545 ± 0.001 | refractive index (333.15 K, x2 = 0.2997): 1.4538 ± 0.001 | refractive index (333.15 K, x2 = 0.4): 1.453 ± 0.001 | refractive index (333.15 K, x2 = 0.4994): 1.4522 ± 0.001 | refractive index (333.15 K, x2 = 0.5991): 1.4513 ± 0.001 | refractive index (333.15 K, x2 = 0.7): 1.4504 ± 0.001 | refractive index (333.15 K, x2 = 0.801): 1.4492 ± 0.001 | refractive index (333.15 K, x2 = 0.8927): 1.4486 ± 0.001
